{"source": "patent US20030013690A1", "about": "“Increasing phosphorus uptake from the gut of dairy cows by supplementing 1alpha-hydroxylated vitamin D compounds” (priority 2001, published 2003)", "format_in_all_cases": "in vivo", "key": {"[1]": {"tested_on": "lactating dairy cows", "assay": "Dairy cow efficacy trial: feed intake, fecal P excretion, P utilization", "from_the_text": "(§1) Eight multiparous lactating dairy cows (about 150 days in milk at start of the experiment) were blocked into two groups according to milk yield. Cows in each block were assigned randomly to four different treatments. The experimental design was a 4×4 Latin Square. Each period was four weeks in length. The first three weeks were used as an adaptation period, and measurements were taken during the last week of each period.\n(§2) The four treatments were:\n(§3) 1) High P diet. Dietary P at 0.47% (DM basis)\n(§4) 2) Diet 1 plus 1-α-OHD3 (75 μg/cow/day)\n(§5) 3) Low P diet. Dietary P at 0.35% (DM basis)\n(§6) 4) Diet 3 plus 1-α-OHD3 (75 μg/cow/day).\nThe diets (Table 1) were fed ad libitum as a total mixed ration once daily. The cows were housed in individual tie stalls. Daily feed offered and refused was recorded for individual cows. Feed refusals were restricted to 10% of intake on an as-fed basis. Daily samples of silage and refusals were composited weekly for chemical analysis. Samples of individual feed ingredients were collected once weekly. The dry matter content of feed ingredients was determined by oven drying at 60° C. for 48 hr. Diet formulations were adjusted weekly, if necessary, to account for changes in dry matter content of diet ingredients. All of the feed ingredients were analyzed for chemical composition. Alfalfa and corn silage were analyzed weekly for neutral detergent fiber (NDF), acid detergent fiber (ADF), and crude protein (CP). High moisture ear corn (HMEC), soybean meal (SBM), roasted soybean meal (RSB), and blood meal (BM) were composited every four weeks (one sample per period) and analyzed for CP.\nFeed DM digestibility was determined using Yb as an external marker. A Yb solution, prepared by dissolving 2.24 g of YbCl3 (1 g of Yb) in 30 ml of water was sprayed onto 500 g of alfalfa silage (DM basis). The Yb-marked alfalfa silage was mixed into the total mixed ration to give 40 mg of Yb/kg of dietary DM. The total mixed ration labeled with Yb was fed for nine days. During the last two days of Yb feeding (last two days of each period), eight fecal grab samples were collected from each cow at 7 am, 12 noon, 6 pm, and 11 pm on the first day and at 9 am, 3 pm, 9 pm, and 5 am on the second day. Fecal samples were dried at 60° C. for 72 h and ground through a 2-mm Wiley mill screen. Fecal samples were dry-ashed in duplicate (Combs and Satter, 1992). During the last four days of each period, feed refusals for each cow were collected and composited into one sample per cow per period. These samples were dry-ashed in the same way as feces, and analyzed for Yb. Concentrations of Yb (ppm) in feed, feed refusals, and fecal samples were determined by direct current plasma spectroscopy [(Combs and Satter, 1992); Spectra Metrics, Inc., subsidiary of Beckman Instruments, Inc., Andover, Mass.]. The DM digestibility (percentage) for individual cows was calculated as follows: DM digestibility (%)=(1-concentration of Yb in DM consumed/average concentration of Yb in each cow's fecal samples)100. Digestibility of dietary P in different treatments was calculated using P input-output data."}, "[2]": {"tested_on": "lactating dairy cows", "assay": "Dairy cow efficacy trial: milk yield and milk composition", "from_the_text": "as §1, §2, §3, §4, §5, §6\n(§7) Cows were weighed two days in a row before the trial started and two days in a row when it finished. Daily milk weights were recorded. All cows were injected with bovine somatotropin (Posilac®). Blood samples were collected on the last day of weeks 1, 2, and 3 of each period. During week 4, blood samples were obtained on each of the last three days. Blood was obtained 5 hours after feeding from the coccygeal vein or artery in a gel and clot co-activator vacutainer. Samples were centrifuged the next day to separate the serum. Inorganic phosphorus and calcium analyses were performed on serum samples by Marshfield Laboratories, Marshfield, Wis.\n(§8) During the last two days of each period, six urine samples were collected at 8 am, 4 pm, and 11 pm on the first day and 12 noon, 8 pm, and 6 am on the second day. Urine samples were then composited for phosphorus, calcium, and creatinine analysis. Creatinine was measured to enable an estimate of urine output. Milk samples were obtained during four days of each period. The milk sample was split; one-half was mixed with a preservative, and the other half was refrigerated without a preservative. The samples with preservative were analyzed for milk composition by Wisconsin Ag Source Milk Analysis Laboratory (Menomonie, Wis.), and the samples without preservative were composited according to milk yield and analyzed for mineral composition in the Soil and Plant Analysis Laboratory, Department of Soil Science, University of Wisconsin-Madison."}, "[3]": {"tested_on": "lactating dairy cows", "assay": "Dairy cow efficacy trial: P and Ca concentrations in blood serum", "from_the_text": "as §1, §2, §3, §4, §5, §6, §7"}, "[4]": {"tested_on": "lactating dairy cows", "assay": "Dairy cow efficacy trial: P and Ca concentrations in urine", "from_the_text": "as §1, §2, §3, §4, §5, §6, §8"}, "[5]": {"conditions": "treatment 2: high P diet (0.47% P) plus 75 μg/cow/day"}, "[6]": {"conditions": "treatment 4: low P diet (0.35% P) plus 75 μg/cow/day"}, "[7]": {"conditions": "both the high- and low-P treatments, highly significant"}}}
{"smiles": "C=C1/C(=C\\C=C2/CCC[C@]3(C)[C@@H]([C@H](C)CCCC(C)C)CC[C@@H]23)C[C@@H](O)C[C@@H]1O", "note": "[1-α-OHD3, 1α-hydroxyvitamin D3]", "values": [{"measurement": "Reduction in fecal P excretion due to supplementation", "setting": "[1]; 75 μg/cow/day", "value": 14, "unit": "%"}, {"measurement": "Reduction of phosphorus excretion in manure", "setting": "[1]; both the high- and low-P treatments, 75 μg/cow/day", "value": "about 10 g per day"}, {"measurement": "Effect on fecal P excretion", "setting": "[1]; daily inclusion of 75 μg in the cows' diets", "value": "reduced"}, {"measurement": "Effect on P uptake from the gut", "setting": "[1]; evidenced by decreased fecal P and increased serum P", "value": "increased"}, {"measurement": "Fecal DM P", "setting": "[1]; [5]", "value": 0.99, "unit": "%"}, {"measurement": "Fecal P", "setting": "[1]; [5]", "value": 71.3, "unit": "g/day"}, {"measurement": "Milk and Fecal P", "setting": "[1]; [5]", "value": 109.5, "unit": "g/day"}, {"measurement": "Fecal DM P", "setting": "[1]; [6]", "value": 0.77, "unit": "%"}, {"measurement": "Fecal P", "setting": "[1]; [6]", "value": 55.4, "unit": "g/day"}, {"measurement": "Milk and Fecal P", "setting": "[1]; [6]", "value": 93.8, "unit": "g/day"}, {"measurement": "Effect on milk production", "setting": "[2]; supplementation of 75 μg", "value": "unaffected"}, {"measurement": "Milk yield", "setting": "[2]; [5]", "value": 36.9, "unit": "kg/day"}, {"measurement": "Milk yield", "setting": "[2]; [6]", "value": 37.6, "unit": "kg/day"}, {"measurement": "Effect on concentration of Ca in blood serum", "setting": "[3]; [7]", "value": "increase"}, {"measurement": "Effect on concentration of P in blood serum", "setting": "[3]; [7]", "value": "increase"}, {"measurement": "Blood serum calcium", "setting": "[3]; [5]", "value": 10.32, "unit": "mg/dL"}, {"measurement": "Blood serum phosphorus", "setting": "[3]; [5]", "value": 8.77, "unit": "mg/dL"}, {"measurement": "Blood serum calcium", "setting": "[3]; [6]", "value": 10.14, "unit": "mg/dL"}, {"measurement": "Blood serum phosphorus", "setting": "[3]; [6]", "value": 7.63, "unit": "mg/dL"}, {"measurement": "Effect on calcium excretion via urine", "setting": "[4]; 75 μg/cow/day", "value": "increased"}, {"measurement": "Urinary P as share of dietary P intake", "setting": "[4]; high-P treatment, at 5.15 mg P per dl of urine", "value": "about 2%"}, {"measurement": "Urine calcium", "setting": "[4]; [5]", "value": 12.03, "unit": "mg/dL"}, {"measurement": "Urine phosphorus", "setting": "[4]; [5]", "value": 5.15, "unit": "mg/dL"}, {"measurement": "Urine calcium", "setting": "[4]; [6]", "value": 15.46, "unit": "mg/dL"}, {"measurement": "Urine phosphorus", "setting": "[4]; [6]", "value": 0.40, "unit": "mg/dL"}]}
